Measurements taken from article PMC4303524 (Organic & biomolecular chemistry, 2015).
Where a chain is given by its changes, count along the chain named. Read-outs that look alike come from different tables or passages of the source.

Key:
LasR Y93F = molecular target: T1, LasR Y93F (Pseudomonas aeruginosa, UniProt P25084, Y93F); assay: β-galactosidase reporter-gene assay, LasR activation; type: cell-based
T1 sequence (P25084 1-239 Y93F): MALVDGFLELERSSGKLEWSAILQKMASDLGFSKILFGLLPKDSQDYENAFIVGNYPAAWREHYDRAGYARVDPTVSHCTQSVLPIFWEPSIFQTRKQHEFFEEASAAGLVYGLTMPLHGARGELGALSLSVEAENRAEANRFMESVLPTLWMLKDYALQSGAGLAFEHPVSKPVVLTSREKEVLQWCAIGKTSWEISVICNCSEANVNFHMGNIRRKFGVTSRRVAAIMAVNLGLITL

LasR S129A = molecular target: T2, LasR S129A (Pseudomonas aeruginosa, UniProt P25084, S129A); assay: as above; type: cell-based
T2 sequence (P25084 1-239 S129A): T1 sequence (P25084 1-239 Y93F) with F93Y, S129A

LasR Y56F = molecular target: T3, LasR Y56F (Pseudomonas aeruginosa, UniProt P25084, Y56F); assay: as above; type: cell-based
T3 sequence (P25084 1-239 Y56F): T1 sequence (P25084 1-239 Y93F) with Y56F, F93Y

LasR W60F = molecular target: T4, LasR W60F (Pseudomonas aeruginosa, UniProt P25084, W60F); assay: as above; type: cell-based; settings: for effect of mutation on LasR activation (in words): ligand at 100 nM
T4 sequence (P25084 1-239 W60F): T1 sequence (P25084 1-239 Y93F) with W60F, F93Y

LasR T75V = molecular target: T5, LasR T75V (Pseudomonas aeruginosa, UniProt P25084, T75V); assay: as above; type: cell-based
T5 sequence (P25084 1-239 T75V): T1 sequence (P25084 1-239 Y93F) with T75V, F93Y

LasR R61M = molecular target: T6, LasR R61M (Pseudomonas aeruginosa, UniProt P25084, R61M); assay: as above; type: cell-based
T6 sequence (P25084 1-239 R61M): T1 sequence (P25084 1-239 Y93F) with R61M, F93Y

LasR T115V = molecular target: T7, LasR T115V (Pseudomonas aeruginosa, UniProt P25084, T115V); assay: as above; type: cell-based
T7 sequence (P25084 1-239 T115V): T1 sequence (P25084 1-239 Y93F) with F93Y, T115V

wild-type LasR [1] = molecular target: T8, wild-type LasR (Pseudomonas aeruginosa, UniProt P25084); assay: as above; type: cell-based; settings: E. coli reporter, geometric mean of biological triplicates
T8 sequence (P25084 1-239): T1 sequence (P25084 1-239 Y93F) with F93Y

wild-type LasR [2] = molecular target: T8, wild-type LasR; settings: read-out: EC50 value in wild-type LasR; cited from earlier work
LasR W88F = molecular target: T9, LasR W88F (Pseudomonas aeruginosa, UniProt P25084, W88F); assay: β-galactosidase reporter-gene assay, LasR activation; type: cell-based
T9 sequence (P25084 1-239 W88F): T1 sequence (P25084 1-239 Y93F) with W88F, F93Y

LasR D73L = molecular target: T10, LasR D73L (Pseudomonas aeruginosa, UniProt P25084, D73L); assay: as above; type: cell-based
T10 sequence (P25084 1-239 D73L): T1 sequence (P25084 1-239 Y93F) with D73L, F93Y

[3] = E. coli reporter, geometric mean of biological triplicates

CCCCCCCCCC(=O)CC(=O)NC1CCSC1=O (centres unmarked) [Ligand 1]
EC50 (LasR Y93F; [3]): 10 nM | EC50 (LasR S129A; [3]): 30 nM | EC50 (LasR Y56F; [3]): 5 nM | EC50 (LasR W60F; [3]): 70 nM | EC50 (LasR T75V; [3]): 0.5 nM | EC50 (LasR R61M; [3]): 80 nM | EC50 (LasR T115V; [3]): 3500 nM | EC50 (wild-type LasR [1]): 5 nM

CCCCCCCCCC(=O)CC(=O)NC1CCCC1 [Ligand 2]
effect of mutation on LasR activation (in words) (LasR S129A; ligand at 10 μM): significantly detrimental | effect of mutation on LasR activation (in words) (LasR R61M; ligand at 10 μM): significantly detrimental | effect of mutation on LasR activation (in words) (LasR T115V; ligand at 10 μM): significantly detrimental

CCCCCCCCCC(=O)CC(=O)Nc1ccccc1 [Ligand 3]
activity in mutant LasR (activation, in words) (LasR Y93F; ligand at 10 μM): flipped the activity of 3 into an agonist | activity in mutant LasR (activation, in words) (LasR Y56F; ligand at 10 μM): moderate agonist | activity in mutant LasR (activation, in words) (LasR W60F; ligand at 10 μM): moderate agonist

CCCCCCCCCCCC(=O)N[C@H]1CCOC1=O [Ligand 4]
effect of mutation on LasR activation (in words) (LasR S129A; ligand at 100 nM): significantly decreased LasR activation | effect of mutation on LasR activation (in words) (LasR Y56F; ligand at 100 nM): small but significant impact | effect of mutation on LasR activation (in words) (LasR W60F): significantly decreased LasR activation | effect of mutation on LasR activation (in words) (LasR R61M; ligand at 100 nM): perhaps only a slight effect | effect of mutation on LasR activation (in words) (LasR T115V; ligand at 100 nM): destroyed LasR activation | EC50 (wild-type LasR [2]): 40 nM

CCCCCCCCCCCC(=O)N[C@H]1CCSC1=O [Ligand 5]
effect of mutation on LasR activation (in words) (LasR S129A; ligand at 100 nM): significantly decreased LasR activation | effect of mutation on LasR activation (in words) (LasR W60F): significantly decreased LasR activation | effect of mutation on LasR activation (in words) (LasR R61M; ligand at 100 nM): no significant effect | effect of mutation on LasR activation (in words) (LasR T115V; ligand at 100 nM): destroyed LasR activation

CCCCCCCCCC(=O)CC(=O)N[C@H]1CCOC1=O [OdDHL, N-(3-oxo)-dodecanoyl L-homoserine lactone, reference compound]
maximal activation (% vs. wild-type) (LasR Y93F; 10 μM OdDHL): 93% | maximal activation (% vs. wild-type) (LasR S129A; 10 μM OdDHL): 103% | maximal activation (% vs. wild-type) (LasR Y56F; 10 μM OdDHL): 102% | maximal activation (% vs. wild-type) (LasR W60F; 10 μM OdDHL): 73% | maximal activation (% vs. wild-type) (LasR T75V; 10 μM OdDHL, mean of biological triplicates): 106% | maximal activation (% vs. wild-type) (LasR W88F; 10 μM OdDHL): 0% | EC50 (LasR W88F; E. coli reporter): inactive | maximal activation (% vs. wild-type) (LasR D73L; 10 μM OdDHL): 0% | EC50 (LasR D73L; E. coli reporter): inactive | maximal activation (% vs. wild-type) (LasR R61M; 10 μM OdDHL): 56% | maximal activation (% vs. wild-type) (LasR T115V; 100 μM OdDHL): 109%
